Several values for one entry are separate records, joined by “and”; a condition that tells them apart may be missing. Equal entries are not always repeated. Blank lines part the entries; values can stand above or below the compound they belong to.
System: NCI-H510 multicellular tumor spheroid growth, % test/control
Test: Anticancer human tumor NCI-H510 cell line growth inhibition [Asc];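 further: spheroids exposed to agents for 7 days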;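 on viability, T/C: 100% = DMSO vehicle control wells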
Conditions: for viability, T/C: stronger effect = lower value
Method: Multicellular complex tumor spheroid response to apoptosis pathway targeting inhibitors Alrizomadlin, Pelcitoclax, and Dasminapant in combination with a variety of drugs and investigational agents in selected tumor cell lines
The MDM2 inhibitor alrizomadlin, the Bcl-2/Bcl-xL inhibitor pelcitoclax, and the IAPs inhibitor dasminapant were evaluated both individually and in combination with standard of care and investigational anticancer small molecules within a complex spheroid model of solid tumors. . Complex spheroids include a stromal component modeled by human endothelial cells (HUVEC) and fibroblasts modeled by human mesenchymal stem cells (MSCs). The concentration ranges selected for each drug and investigational agent were based upon clinically achievable concentrations if the clinical Cmax of the agent was known.
Compounds. The drugs and investigational agents: alrizomadlin (APG-115; NSC831270), pelcitoclax (APG-1252; NSC835773), dasminapant (APG-1387;NSC834197), TAK-243 (NSC785004), copanlisib (NSC809693), olaparib (NSC753686), talazoparib (NSC767125), cobimetinib (NSC 768068), eltanexor (KPT-8602, NSC 794443), abemaciclib (NSC 768073), sotorasib (NSC818433), adagrasib (NSC 831453), MRTX-1133 (NSC 836407), Iadademestat (ORY1001, NSC 806812), and RMC-4630 (NSC839698), were obtained from the NCI Developmental Therapeutics Program Chemical Repository. The FDA-approved anticancer drug set is available from the Developmental Therapeutics Program at https://dtp.cancer.gov/organization/dscb/obtaining/available plates.htm. […] The stock solutions were prepared in dimethyl sulfoxide (DMSO, Sigma-Aldrich, St. Louis, MO, cat. D2650) at 800-fold the tested concentration and stored at -70 degrees C prior to their use. All drugs and investigational agents were tested over a range starting from a high concentration at or near the clinical Cmax and decreasing in half-log increments. If the clinical Cmax for an agent had not been determined, the highest concentration tested was 10 microM.
The patient-derived cancer (PDC) cell lines include five colon adenocarcinomas: 186277-243-T-J2-PDC, 616215-338-R-J1-PDC, 439559-082-T-J2-PDC, 463943-066-T-J2-PDC, and 519858-162-T-J1-PDC; three pancreatic carcinomas: 323965-272-R-J2-PDC, 521955-158-R6-J3-PDC, and 521955-158-R2-J5-PDC; two uterine sarcomas: 327498-152-R-J2-PDC and 993429-296-R-J1-PDC; two rhabdomyosarcomas: 755483-174-R-J1-PDC and 772245-204-R-J1-PDC; two soft tissue sarcomas: 126254-015-R-J1-PDC and 494315-158-R-J1-PDC; two malignant fibrous histiocytomas: 317291-083-R-J1-PDC and 596521-263-R-J1-PDC; two breast carcinomas: 171881-019-R-J1-PDC and 885512-296-R-J2-PDC; and one ovarian carcinoma: 6556581-035-R-J-PDC were obtained from the NCI PDMR, (https://pdmr.cancer.gov). The established cell lines HSSY-2 synovial sarcoma (RRID:CVCL 8719), SYO-1 synovial sarcoma (RRID:CVCL_7146), MPNST malignant peripheral neural sheath tumor were obtained from the Sloan Kettering Institute. The following established cell lines were purchased from the American Type Culture Collection (ATCC, Manassas, VA), Sor the received from the NCI repository:, PANC-1 pancreatic carcinoma (CRL-1469, RRID:CVCL_0480), OVCAR-5 ovarian carcinoma (RRID:CVCL_1628), OVCAR-8 ovarian carcinoma (RRID:CVCL_1629), , MCF-7 breast carcinoma (CRL-12584, RRID:CVCL_0031), MDA-MB-231 breast carcinoma (CRL-12532, RRID:CVCL_0062), NCI-H1876 small cell lung carcinoma (CRL-5902, RRID:CVCL_1503), NCI-H510A small cell lung carcinoma (HTB-184, RRID:CVCL_1565), NCI-H1417 (CRL-5869, RRID:CVCL_1469), and NCI-H196 small cell lung carcinoma (CRL-5823, RRID:CVCL_1509). Dr. Peter Houghton (Greehey Children's Cancer Research Institute, University of Texas Health Science Center, San Antonio, TX) provided Rh-18 rhabdomyosarcoma (RRID:CVCL_1659). Pooled donor human umbilical vein endothelial cells (HUVEC, Lonza, cat. CC-2519) and human mesenchymal stem cells (hMSC, Lonza, cat. PT-2501) were purchased from Lonza (Walkersville, MD).
Cell Culture. […]

[1] = curve of first compound, second compound 0.03 µM
[2] = curve of first compound, second compound 0.0949 µM
[3] = curve of first compound, second compound 0.3 µM
[4] = curve of first compound, second compound 0.949 µM
[5] = curve of first compound, second compound 3 µM
[6] = second compound 0.03 µM, first compound 0.00316 µM
[7] = second compound 0.03 µM, first compound 0.01 µM
[8] = second compound 0.03 µM, first compound 0.0316 µM
[9] = second compound 0.03 µM, first compound 0.1 µM
[10] = second compound 0.03 µM, first compound 0.316 µM
[11] = second compound 0.03 µM, first compound 1 µM
[12] = second compound 0.0949 µM, first compound 0.00316 µM
[13] = second compound 0.0949 µM, first compound 0.01 µM
[14] = second compound 0.0949 µM, first compound 0.0316 µM
[15] = second compound 0.0949 µM, first compound 0.1 µM
[16] = second compound 0.0949 µM, first compound 0.316 µM
[17] = second compound 0.0949 µM, first compound 1 µM
[18] = second compound 0.3 µM, first compound 0.00316 µM
[19] = second compound 0.3 µM, first compound 0.01 µM
[20] = second compound 0.3 µM, first compound 0.0316 µM
[21] = second compound 0.3 µM, first compound 0.1 µM
[22] = second compound 0.3 µM, first compound 0.316 µM
[23] = second compound 0.3 µM, first compound 1 µM
[24] = second compound 0.949 µM, first compound 0.00316 µM
[25] = second compound 0.949 µM, first compound 0.01 µM
[26] = second compound 0.949 µM, first compound 0.0316 µM
[27] = second compound 0.949 µM, first compound 0.1 µM
[28] = second compound 0.949 µM, first compound 0.316 µM
[29] = second compound 0.949 µM, first compound 1 µM
[30] = second compound 3 µM, first compound 0.00316 µM
[31] = second compound 3 µM, first compound 0.01 µM
[32] = second compound 3 µM, first compound 0.0316 µM
[33] = second compound 3 µM, first compound 0.1 µM
[34] = second compound 3 µM, first compound 0.316 µM
[35] = second compound 3 µM, first compound 1 µM

IC50 [1]: > 1000 nM | IC50 [2]: > 1000 nM | IC50 [3]: > 1000 nM | IC50 [4]: > 1000 nM | IC50 [5]: > 1000 nM
Structure (SMILES): O=C(c1ccc(F)c(F)c1Nc1ccc(I)cc1F)N1CC(O)([C@@H]2CCCCN2)C1 + CCN1C(C(=O)NC23CCC(C(=O)O)(CC2)CC3)C(c2cccc(Cl)c2F)C2(C(=O)Nc3cc(Cl)ccc32)C12CCCCC2
viability, T/C [6]: 95.8% | viability, T/C [7]: 126% | viability, T/C [8]: 130% | viability, T/C [9]: 121% | viability, T/C [10]: 103% | viability, T/C [11]: 103% | viability, T/C [12]: 127% | viability, T/C [13]: 124% | viability, T/C [14]: 105% | viability, T/C [15]: 95.7% | viability, T/C [16]: 126% | viability, T/C [17]: 116% | viability, T/C [18]: 122% | viability, T/C [19]: 111% | viability, T/C [20]: 120% | viability, T/C [21]: 119% | viability, T/C [22]: 117% | viability, T/C [23]: 91.5% | viability, T/C [24]: 120% | viability, T/C [25]: 132% | viability, T/C [26]: 132% | viability, T/C [27]: 131% | viability, T/C [28]: 118% | viability, T/C [29]: 116% | viability, T/C [30]: 134% | viability, T/C [31]: 160% | viability, T/C [32]: 140% | viability, T/C [33]: 114% | viability, T/C [34]: 124% | viability, T/C [35]: 127%

IC50 (curve of compound): 154 nM and 81.7 nM and > 300 nM
Structure (SMILES): NC(=O)C(=Cn1cnc(-c2cc(C(F)(F)F)cc(C(F)(F)F)c2)n1)c1cncnc1
viability, T/C (compound 0.000949 µM): 91.3% and 79.1% and 81.8% | viability, T/C (compound 0.003 µM): 95.1% and 92.5% and 90.3% | viability, T/C (compound 0.00949 µM): 97.5% and 68.2% and 97.9% | viability, T/C (compound 0.03 µM): 87.7% and 81.1% and 98% | viability, T/C (compound 0.0949 µM): 76% and 44% and 86.5% | viability, T/C (compound 0.3 µM): 14.6% and 47% and 69.7%

IC50 [1]: > 1000 nM | IC50 [2]: > 1000 nM | IC50 [3]: > 1000 nM | IC50 [4]: > 1000 nM | IC50 [5]: > 1000 nM
Structure (SMILES): CCN1CCN(Cc2ccc(Nc3ncc(F)c(-c4cc(F)c5nc(C)n(C(C)C)c5c4)n3)nc2)CC1 + CCN1C(C(=O)NC23CCC(C(=O)O)(CC2)CC3)C(c2cccc(Cl)c2F)C2(C(=O)Nc3cc(Cl)ccc32)C12CCCCC2
viability, T/C [6]: 100% | viability, T/C [7]: 88% | viability, T/C [8]: 99.1% | viability, T/C [9]: 129% | viability, T/C [10]: 123% | viability, T/C [11]: 75.7% | viability, T/C [12]: 97.4% | viability, T/C [13]: 116% | viability, T/C [14]: 121% | viability, T/C [15]: 110% | viability, T/C [16]: 105% | viability, T/C [17]: 87.5% | viability, T/C [18]: 119% | viability, T/C [19]: 114% | viability, T/C [20]: 74.9% | viability, T/C [21]: 86.1% | viability, T/C [22]: 106% | viability, T/C [23]: 88.7% | viability, T/C [24]: 105% | viability, T/C [25]: 107% | viability, T/C [26]: 123% | viability, T/C [27]: 74.5% | viability, T/C [28]: 107% | viability, T/C [29]: 106% | viability, T/C [30]: 98.2% | viability, T/C [31]: 127% | viability, T/C [32]: 128% | viability, T/C [33]: 76.1% | viability, T/C [34]: 113% | viability, T/C [35]: 83.1%

IC50 (curve of compound): > 3000 nM
Structure (SMILES): Cc1nc(N2CCC3(CC2)COC(C)C3N)c(CO)nc1Sc1ccnc(N)c1Cl (centres undefined)
viability, T/C (compound 0.00949 µM): 103% and 93.2% and 86.2% | viability, T/C (compound 0.03 µM): 101% and 121% and 91% | viability, T/C (compound 0.0949 µM): 103% and 109% and 98.7% | viability, T/C (compound 0.3 µM): 99% and 118% and 99.2% | viability, T/C (compound 0.949 µM): 96.9% and 107% and 96.8% | viability, T/C (compound 3 µM): 100% and 106% and 80.6%
